For test [1], the target named is T1, Human M3 receptor (Homo sapiens, UniProt P20309).
T1 construct: purchased Perkin Elmer
In words: M3 receptor radioligand binding assay. The settings on record: human M3 receptor membranes, [N-methyl-3H] scopolamine methyl chloride, Ki from IC50 by Cheng and Prusoff. How it is done:
Example. M3 Receptor Radioligand Binding Assay
The assay was carried out in 96-well polypropylene plates in a volume of 250 ul. […] The final assay concentration of DMSO was 0.5% (v/v). The plates were sealed and incubated for 2 hours at room temperature on an orbital shaker (slow speed). Membranes were harvested onto 96-well unifilter GF/C filter plates pre-treated with 0.5% polyethyleneimine (v/v), using a filter manifold, washed four times with 200 μl of assay buffer. The plates were dried before addition of 50 μl of microscint-0, sealed then read in a Trilux Microbeta scintillation counter. IC50 values are determined from competition curves using a non-linear curve fitting program. Ki values were calculated from IC50 values by the Cheng and Prusoff equation.

Test [2] concerns the target T2, Human β2 adrenoceptor (Homo sapiens, UniProt P07550).
T2 construct: purchased Perkin Elmer
In words: β2 adrenoceptor radioligand binding assay. The settings on record: human β2 adrenoceptor membranes, 125-I cyanopindolol, Ki from IC50 by Cheng and Prusoff. How it is done: Example. β2 Adrenoceptor Radioligand Binding Assay
Human β2 adrenoceptor membranes (7.5 ug/well) from Perkin Elmer were incubated with 0.3 nM 125-I Cyanopindolol with or without test compounds, or a saturating concentration of s-propranolol (2 μM) for the determination of non-specific binding. The assay was carried out in 96-well polypropylene plates in a volume of 200 ul. The assay buffer used was 25 mM HEPES, 0.5% BSA (w/v), 1 mM EDTA, 0.02% ascorbic acid (v/v), (pH 7.4). The final assay concentration of DMSO was 0.5% (v/v). The plates were sealed and incubated for 1 hour at room temperature on an orbital shaker (slow speed). Membranes were harvested onto 96-well unifilter GF/C filter plates pre-treated with 0.5% polyethyleneimine (v/v), using a filter manifold, washed six times with 200 μl of wash buffer containing 10 mM HEPES and 500 mM NaCl. The plates were dried before addition of 50 μl of microscint-0, sealed then read in a Trilux Microbeta scintillation counter. IC50 values are determined from competition curves using a non-linear curve fitting program. Ki values were calculated from IC50 values by the Cheng and Prusoff equation.

Where [3] appears, read: read-out: M3 binding affinity (Ki class).
[4] abbreviates: read-out: B2 binding affinity (Ki class).

By Ki is commonly meant a measure of affinity in units of concentration, obtained from inhibition or displacement.

Like-named read-outs stand apart in the source and are kept apart here.

T1 sequence (P20309 whole entry): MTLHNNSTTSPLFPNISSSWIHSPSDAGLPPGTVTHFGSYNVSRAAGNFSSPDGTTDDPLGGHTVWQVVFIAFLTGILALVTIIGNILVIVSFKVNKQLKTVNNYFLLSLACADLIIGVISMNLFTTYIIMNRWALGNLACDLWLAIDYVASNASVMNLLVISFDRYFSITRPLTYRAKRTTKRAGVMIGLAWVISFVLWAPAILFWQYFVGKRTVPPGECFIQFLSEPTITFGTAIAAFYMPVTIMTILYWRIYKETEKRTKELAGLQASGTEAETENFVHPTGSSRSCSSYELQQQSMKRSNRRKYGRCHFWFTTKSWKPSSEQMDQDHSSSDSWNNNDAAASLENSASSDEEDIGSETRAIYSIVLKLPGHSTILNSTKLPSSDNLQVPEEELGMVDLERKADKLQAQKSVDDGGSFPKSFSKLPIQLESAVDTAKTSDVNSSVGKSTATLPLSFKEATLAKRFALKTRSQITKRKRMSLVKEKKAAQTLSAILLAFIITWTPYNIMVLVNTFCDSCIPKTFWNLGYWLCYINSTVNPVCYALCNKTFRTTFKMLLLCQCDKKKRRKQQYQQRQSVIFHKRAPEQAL
T2 sequence (P07550 whole entry): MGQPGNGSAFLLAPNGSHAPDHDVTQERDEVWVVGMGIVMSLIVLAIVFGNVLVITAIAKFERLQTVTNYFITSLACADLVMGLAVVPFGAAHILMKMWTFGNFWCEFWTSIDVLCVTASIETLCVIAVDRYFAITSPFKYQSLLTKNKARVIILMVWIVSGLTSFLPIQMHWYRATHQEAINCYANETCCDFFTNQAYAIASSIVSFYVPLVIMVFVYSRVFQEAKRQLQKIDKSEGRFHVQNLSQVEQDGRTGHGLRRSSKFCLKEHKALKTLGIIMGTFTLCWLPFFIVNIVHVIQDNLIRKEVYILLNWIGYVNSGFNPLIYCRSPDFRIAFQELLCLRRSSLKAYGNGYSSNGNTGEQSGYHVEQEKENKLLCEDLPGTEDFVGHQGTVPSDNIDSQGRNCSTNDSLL

With `Cc1cccc2c1CCC2(NC(=O)c1cccc(OCCCCCNC[C@H](O)c2ccc(O)c3[nH]c(=O)ccc23)c1)C(=O)O[C@H]1CN2CCC1CC2` (single isomer, unassigned; diastereoisomer 1) [Compound 5A], the Ki in test [1] (setting [3]) and in test [2] (setting [4]) was 1 to 10 nM throughout.

Take `Cc1cccc2c1CCC2(NC(=O)c1cccc(OCCCCCNC[C@H](O)c2ccc(O)c3[nH]c(=O)ccc23)c1)C(=O)O[C@H]1CN2CCC1CC2` (single isomer, unassigned; diastereoisomer 2) [Compound 5B]: the Ki in test [1] (setting [3]) and in test [2] (setting [4]) was less than 1 nM throughout.

As to `O=C(NCCCCNC[C@H](O)c1ccc(O)c2[nH]c(=O)ccc12)c1ccc(CNC2(C(=O)OCC3CCN(Cc4ccccc4)CC3)CCc3ccccc32)s1` (single isomer, unassigned; stereoisomer 1) [Compound 22], the inhibition constant (Ki) in test [1] (setting [3]) was less than 1 nM; in test [2] (setting [4]), 1 to 10 nM.

Turning to `O=C(NCCCCNC[C@H](O)c1ccc(O)c2[nH]c(=O)ccc12)c1ccc(CNC2(C(=O)OC3CCN(Cc4ccccc4)CC3)CCc3ccccc32)s1` (single isomer, unassigned; stereoisomer 1) [Compound 24], the figures for the Ki in test [1] (setting [3]) and in test [2] (setting [4]) were less than 1 nM and more than 10 nM, respectively.

For `O=C(NCCCCNC[C@H](O)c1ccc(O)c2[nH]c(=O)ccc12)c1ccc(CNC2(C(=O)O[C@@H]3CCCN(Cc4ccccc4)C3)CCc3ccccc32)s1` (single isomer, unassigned; stereoisomer 1) [Compound 25], the Ki in test [1] (setting [3]) was less than 1 nM; in test [2] (setting [4]), more than 10 nM.

As for `O=C(NCCCCNC[C@H](O)c1ccc(O)c2[nH]c(=O)ccc12)c1ccc(CNC2(C(=O)O[C@@H]3CCN(Cc4ccccc4)C3)CCc3ccccc32)s1` (single isomer, unassigned; stereoisomer 1) [Compound 26], the Ki in test [1] (setting [3]) and in test [2] (setting [4]) was more than 10 nM throughout.

In the case of `O=C(NCCCCNC[C@H](O)c1ccc(O)c2[nH]c(=O)ccc12)c1ccc(CNC2(C(=O)OCC3CCN(Cc4ccccc4)CC3)CCc3ccccc32)s1` (single isomer, unassigned; stereoisomer 2) [Compound 23], the figures for the Ki in test [1] (setting [3]) and in test [2] (setting [4]) were less than 1 nM and 1 to 10 nM, respectively.

As to `O=C(NCCCCNC[C@H](O)c1ccc(O)c2[nH]c(=O)ccc12)c1ccc(CNC2(C(=O)OC3CCN(Cc4ccccc4)CC3)CCc3ccccc32)s1` (single isomer, unassigned; stereoisomer 2) [Compound 27], the Ki in test [1] (setting [3]) is less than 1 nM; in test [2] (setting [4]), more than 10 nM.

As to `O=C(NCCCCNC[C@H](O)c1ccc(O)c2[nH]c(=O)ccc12)c1ccc(CNC2(C(=O)O[C@@H]3CCN(Cc4ccccc4)C3)CCc3ccccc32)s1` (single isomer, unassigned; stereoisomer 2) [Compound 28], the inhibition constant (Ki) is less than 1 nM in test [1] (setting [3]) and 1 to 10 nM in test [2] (setting [4]).

As to `O=C(NCCCCNC[C@H](O)c1ccc(O)c2[nH]c(=O)ccc12)c1cccc(CNC2(C(=O)O[C@H]3CN4CCC3CC4)CCc3ccccc32)c1` (stereo partly drawn) [Compound 1, (R)-quinuclidin-3-yl 1-((3-((4-(((R)-2-hydroxy-2-(8-hydroxy-2-oxo-1,2-dihydroquinolin-5-yl)ethyl)amino)butyl)carbamoyl)benzyl)amino)-2,3-dihydro-1H-indene-1-carboxylate], the Ki in test [1] (setting [3]) and in test [2] (setting [4]) was less than 1 nM in each case.

For `O=C(NC1(C(=O)O[C@H]2CN3CCC2CC3)CCc2ccccc21)c1cccc(OCCCCCNC[C@H](O)c2ccc(O)c3[nH]c(=O)ccc23)c1` (stereo partly drawn) [Compound 2, (R)-quinuclidin-3-yl 1-(3-((5-(((R)-2-hydroxy-2-(8-hydroxy-2-oxo-1,2-dihydroquinolin-5-yl)ethyl)amino)pentyl)oxy)benzamido)-2,3-dihydro-1H-indene-1-carboxylate], the Ki in test [1] (M3 binding affinity (Ki class)) and in test [2] (B2 binding affinity (Ki class)) was less than 1 nM in each case.

As for `O=C(O[C@H]1CN2CCC1CC2)C1(NCc2cccc(OCCCCCNC[C@H](O)c3ccc(O)c4[nH]c(=O)ccc34)c2)CCc2ccccc21` (stereo partly drawn) [Compound 3, (R)-quinuclidin-3-yl 1-((3-((5-(((R)-2-hydroxy-2-(8-hydroxy-2-oxo-1,2-dihydroquinolin-5-yl)ethyl)amino)pentyl)oxy)benzyl)amino)-2,3-dihydro-1H-indene-1-carboxylate], the Ki in test [1] (setting [3]) and in test [2] (setting [4]) was less than 1 nM throughout.

As to `O=C(NCCCCNC[C@H](O)c1ccc(O)c2[nH]c(=O)ccc12)c1ccc(CNC2(C(=O)O[C@H]3CN4CCC3CC4)CCc3ccccc32)s1` (stereo partly drawn) [Compound 4, (R)-quinuclidin-3-yl 1-(((5-((4-(((R)-2-hydroxy-2-(8-hydroxy-2-oxo-1,2-dihydroquinolin-5-yl)ethyl)amino)butyl)carbamoyl)thiophen-2-yl)methyl)amino)-2,3-dihydro-1H-indene-1-carboxylate], the Ki in test [1] (setting [3]) and in test [2] (setting [4]) was less than 1 nM in each case.

Take `Cc1cccc2c1CCC2(NCc1cccc(C(=O)NCCCCNC[C@H](O)c2ccc(O)c3[nH]c(=O)ccc23)c1)C(=O)O[C@H]1CN2CCC1CC2` (stereo partly drawn) [Compound 5, (R)-quinuclidin-3-yl 1-((3-((4-(((R)-2-hydroxy-2-(8-hydroxy-2-oxo-1,2-dihydroquinolin-5-yl)ethyl)amino)butyl)carbamoyl)benzyl)amino)-4-methyl-2,3-dihydro-1H-indene-1-carboxylate]: the Ki in test [1] (setting [3]) and in test [2] (setting [4]) was less than 1 nM throughout.

For `O=C(NC1(C(=O)O[C@H]2CN3CCC2CC3)CCc2ccccc21)c1cccc(OCCCCNC[C@H](O)c2ccc(O)c3[nH]c(=O)ccc23)c1` (stereo partly drawn) [Compound 6, (R)-quinuclidin-3-yl 1-(3-(4-(((R)-2-hydroxy-2-(8-hydroxy-2-oxo-1,2-dihydroquinolin-5-yl)ethyl)amino)butoxy)benzamido)-2,3-dihydro-1H-indene-1-carboxylate], the Ki was less than 1 nM in test [1] (setting [3]) and 1 to 10 nM in test [2] (setting [4]).

As to `CC(C)N1CCC(COC(=O)C2(NC(=O)c3cccc(OCCCCCCNC[C@H](O)c4ccc(O)c5[nH]c(=O)ccc45)c3)CCc3ccccc32)CC1` (stereo partly drawn) [Compound 7, (1-isopropylpiperidin-4-yl)methyl 1-(3-((6-(((R)-2-hydroxy-2-(8-hydroxy-2-oxo-1,2-dihydroquinolin-5-yl)ethyl)amino)hexyl)oxy)benzamido)-2,3-dihydro-1H-indene-1-carboxylate], the Ki in test [1] (setting [3]) was less than 1 nM; in test [2] (setting [4]), more than 10 nM.

On to `O=C(NCCCCNC[C@H](O)c1ccc(O)c2[nH]c(=O)ccc12)c1cccc(C(=O)NC2(C(=O)O[C@H]3CN4CCC3CC4)CCc3ccccc32)c1` (stereo partly drawn) [Compound 8, (R)-quinuclidin-3-yl 1-(3-((4-(((R)-2-hydroxy-2-(8-hydroxy-2-oxo-1,2-dihydroquinolin-5-yl)ethyl)amino)butyl)carbamoyl)benzamido)-2,3-dihydro-1H-indene-1-carboxylate], for which the results for the Ki in test [1] (setting [3]) and in test [2] (setting [4]) were 1 to 10 nM and more than 10 nM, respectively.

Regarding `O=C(NC1(C(=O)OCC2CCN(Cc3ccccc3)CC2)CCc2ccccc21)c1cccc(OCCCCCCNC[C@H](O)c2ccc(O)c3[nH]c(=O)ccc23)c1` (stereo partly drawn) [Compound 9, (1-benzylpiperidin-4-yl)methyl 1-(3-((6-(((R)-2-hydroxy-2-(8-hydroxy-2-oxo-1,2-dihydroquinolin-5-yl)ethyl)amino)hexyl)oxy)benzamido)-2,3-dihydro-1H-indene-1-carboxylate], the values for the inhibition constant Ki in test [1] (setting [3]) and in test [2] (setting [4]) were less than 1 nM and more than 10 nM, respectively.

Regarding `O=C(NC1(C(=O)OCC2CCN(Cc3ccco3)CC2)CCc2ccccc21)c1cccc(OCCCCCCNC[C@H](O)c2ccc(O)c3[nH]c(=O)ccc23)c1` (stereo partly drawn) [Compound 10, (1-(furan-2-ylmethyl)piperidin-4-yl)methyl 1-(3-((6-(((R)-2-hydroxy-2-(8-hydroxy-2-oxo-1,2-dihydroquinolin-5-yl)ethyl)amino)hexyl)oxy)benzamido)-2,3-dihydro-1H-indene-1-carboxylate], the Ki was 1 to 10 nM in test [1] (setting [3]) and more than 10 nM in test [2] (setting [4]).

Consider `O=C(NC1(C(=O)OCC2CCN(Cc3cccc(O)c3)CC2)CCc2ccccc21)c1cccc(OCCCCCCNC[C@H](O)c2ccc(O)c3[nH]c(=O)ccc23)c1` (stereo partly drawn) [Compound 11, (1-(3-hydroxybenzyl)piperidin-4-yl)methyl 1-(3-((6-(((R)-2-hydroxy-2-(8-hydroxy-2-oxo-1,2-dihydroquinolin-5-yl)ethyl)amino)hexyl)oxy)benzamido)-2,3-dihydro-1H-indene-1-carboxylate], for which the Ki was 1 to 10 nM in test [1] (setting [3]) and more than 10 nM in test [2] (setting [4]).

For the origin of these results see patent publication US9932338B2, “Compounds having muscarinic receptor antagonist and BETA2 adrenergic receptor agonist activity” (CHIESI FARMACEUTICI S.P.A., priority 2015, dated 2018).
